From patent US9861575B2, “Vitamin-containing nutrition infusion for administration through peripheral vein” (AJINOMOTO CO., INC., priority 2010, dated 2018) come the findings set out here.

A short description of data set [1]: Test Example 6: stability of respective vitamins on storage of infusion formulation of Example 11. Type of data set: physicochemical. Conditions: in infusion formulation of Example 11, percentage based on the mixed amount; for residual rate (content), storage for 1 month / residual rate (content), storage for 3 months: 40° C. and 75% RH. The text has this: In addition, the content is expressed as a percentage based on the mixed amount. From the results, it is considered that the infusion formulation of the present invention remains stable even when stored for a long time.

The nature of data set [2]: Test Example 7: stability of mixed solution of Example 11. Type of data set: physicochemical. Conditions: mixed solution of Example 11, room temperature, light-shielded; value immediately after mixing = 100%. The protocol: Regarding the infusion formulations prepared in Example 11, the partition portions were opened to thoroughly mix the sugar solution with the amino acid solution at room temperature, and then the mixed solution was sampled after 0 hours, 24 hours, and 48 hours to measure the content of the respective vitamins and N-acetyl cysteine. In addition, the mixed solution was stored in a light-shielded environment. The value measured immediately after mixing was taken as 100%, and the content at each point in time of measurement is expressed as a percentage. All of the respective components remained stable until 48 hours elapsed after mixing.

Where a name gives a salt, the structure may show the parent alone.

On to `Cc1ncc(C[n+]2csc(CCO)c2C)c(N)n1` [Vitamin B1, Thiamine hydrochloride], for which, in data set [1], the “residual rate (content), storage for 1 month” value (from here on “residual rate … for 1 month”) came to 90.6%; the “residual rate (content), storage for 3 months” value (from here on “residual rate … for 3 months”) was 83.5%; the “residual rate (content) immediately after sterilization” value (“residual rate (content) immediately” for short) was 93.3%. For the same compound, in data set [2], the “content after 24 hours” value came to 99.4% and the “content after 48 hours” value was 94.1%.
In the case of `Cc1cc2nc3c(=O)[nH]c(=O)nc-3n(C[C@H](O)[C@H](O)[C@H](O)COP(=O)([O-])O)c2cc1C.[Na+]` [Vitamin B2, Riboflavin sodium phosphate], in data set [1], the “residual rate … for 1 month” value came to 94.3%; the “residual rate … for 3 months” value is 92.6%; the “residual rate (content) immediately” value was determined as 94.7%. Further, the “content after 48 hours” value in data set [2] was 99.8%.
Consider `Cc1ncc(CO)c(CO)c1O.Cl` [Vitamin B6, Pyridoxine hydrochloride], for which, in data set [1], the “residual rate … for 1 month” value is on record as 96.7%; the “residual rate … for 3 months” value amounted to 97.3%; the “residual rate (content) immediately” value was found to be 97.1%. In data set [2], the “content after 24 hours” value was 100.6% and the “content after 48 hours” value came out at 99.9%.
On the same counts, the results for `CC(C)(CO)[C@@H](O)C(=O)NCCCO` [Panthenol] are 97.6%, 96.8%, 97.8%, 100.0% and 100.2%.
On the same counts, the results for `NC(=O)c1cccnc1` [Nicotinamide] are 101.5%, 99.6%, 100.9%, 96.6% and 97.2%.
In the case of `Nc1nc2ncc(CNc3ccc(C(=O)N[C@@H](CCC(=O)O)C(=O)O)cc3)nc2c(=O)[nH]1` [Folic acid], in data set [1], the “residual rate … for 1 month” value came out at 96.5%; the “residual rate … for 3 months” value is given as 89.7%; the “residual rate (content) immediately” value turned out to be 95.8%. Also, in data set [2], the “content after 24 hours” value worked out at 96.4% and the “content after 48 hours” value was 96.2%.
On to `CC(=O)N[C@@H](CS)C(=O)O` [N-acetyl cysteine], for which, in data set [2], the “content after 24 hours” value was found to be 98.3% and the “content after 48 hours” value amounted to 97.5%.
Turning to `O=C(O)CCCC[C@@H]1SC[C@@H]2NC(=O)N[C@@H]21` [Biotin], in data set [1], the “residual rate … for 3 months” value is given as 91.4% and the “residual rate (content) immediately” value came to 93.6%. For the same compound, in data set [2], the “content after 24 hours” value amounted to 97.9% and the “content after 48 hours” value came out at 96.7%.
With Cyanocobalamin [Vitamin B12], in data set [1], the “residual rate … for 1 month” value is listed as 89.7%; the “residual rate … for 3 months” value came to 91.2%; the “residual rate (content) immediately” value stood at 86.3%. Moreover, in data set [2], the “content after 24 hours” value is 96.0% and the “content after 48 hours” value is reported as 97.9%.
On the same counts, the results for `O=C1O[C@H]([C@@H](O)CO)C(O)=C1O` [Vitamin C, Ascorbic acid] are 97.6%, 99.7%, 96.1%, 97.1% and 92.2%.
